System: HBV
Assay: HBV inhibition assay: anti-HBV activity in vitro in HepG2.2.15 cells (extracellular HBV DNA by qPCR)
Type: cell-based
Conditions: Hepatitis B virus, 120 h, five days after compound treatment, extracellular HBV DNA in culture supernatant by qPCR, concentration at which HBV replication is inhibited by 50%
Outline: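 HepG2.2.15 cells (stably carrying HBV genome) treated with half-log serially diluted compounds at 0.5% DMSO final for five days. Extracellular HBV DNA in supernatant quantified by qPCR after Proteinase K digestion; EC50 is concentration giving 50% inhibition of replication.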

Going from `C[C@H]1Cn2ncc(N3CC4(CCOCC4)CC3=O)c2CN1C(=O)Nc1ccc(F)c(Cl)c1` [Example 296, (6S)—N-(3-chloro-4-fluoro-phenyl)-6-methyl-3-(3-oxo-8-oxa-2-azaspiro[4.5]decan-2-yl)-6,7-dihydro-4H-pyrazolo[1,5-a]pyrazine-5-carboxamide] to `C[C@H]1Cn2ncc(N3CC4(CCOC4)CC3=O)c2CN1C(=O)Nc1ccc(F)c(Cl)c1` (stereo partly drawn) [Example 303, (6S)—N-(3-chloro-4-fluoro-phenyl)-6-methyl-3-(8-oxo-2-oxa-7-azaspiro[4.4]nonan-7-yl)-6,7-dihydro-4H-pyrazolo[1,5-a]pyrazine-5-carboxamide], the EC50 rises from 30 nM to 81 nM (2.7-fold). The first is the more potent here.

`CC1CCN(c2cnn3c2CN(C(=O)Nc2ccc(F)c(Cl)c2)[C@@H](C)C3)C1=O` (stereo partly drawn) [Example 297, (6S)—N-(3-chloro-4-fluoro-phenyl)-6-methyl-3-(3-methyl-2-oxo-pyrrolidin-1-yl)-6,7-dihydro-4H-pyrazolo[1,5-a]pyrazine-5-carboxamide] and `CC1CN(c2cnn3c2CN(C(=O)Nc2ccc(F)c(Cl)c2)[C@@H](C)C3)C(=O)N1` (stereo partly drawn) [Example 326, (6S)—N-(3-chloro-4-fluoro-phenyl)-6-methyl-3-(4-methyl-2-oxo-imidazolidin-1-yl)-6,7-dihydro-4H-pyrazolo[1,5-a]pyrazine-5-carboxamide] are within 1.5-fold of each other in EC50: 68 nM for the first, 46 nM for the second.

Going from `C[C@H]1Cn2ncc(N3CC(CO)CC3=O)c2CN1C(=O)Nc1ccc(F)c(Cl)c1` (stereo partly drawn) [Example 298, (6S)—N-(3-chloro-4-fluoro-phenyl)-3-[4-(hydroxymethyl)-2-oxo-pyrrolidin-1-yl]-6-methyl-6,7-dihydro-4H-pyrazolo[1,5-a]pyrazine-5-carboxamide] to `CCC1CC(=O)N(c2cnn3c2CN(C(=O)Nc2ccc(F)c(Cl)c2)[C@@H](C)C3)C1` (stereo partly drawn) [Example 302, (6S)—N-(3-chloro-4-fluoro-phenyl)-3-(4-ethyl-2-oxo-pyrrolidin-1-yl)-6-methyl-6,7-dihydro-4H-pyrazolo[1,5-a]pyrazine-5-carboxamide], the EC50 falls from 104 nM to 20 nM (5.2-fold). The second is the more potent here.

Compared with `COCC1CC(=O)N(c2cnn3c2CN(C(=O)Nc2cc(F)c(F)c(F)c2)[C@@H](C)C3)C1` (stereo partly drawn) [Example 299, (6S)-3-[4-(methoxymethyl)-2-oxo-pyrrolidin-1-yl]-6-methyl-N-(3,4,5-trifluorophenyl)-6,7-dihydro-4H-pyrazolo[1,5-a]pyrazine-5-carboxamide], `Cc1ncc(C2CC(=O)N(c3cnn4c3CN(C(=O)Nc3cc(F)c(F)c(F)c3)[C@@H](C)C4)C2)o1` (stereo partly drawn) [Example 349, (6S)-6-methyl-3-[4-(2-methyloxazol-5-yl)-2-oxo-pyrrolidin-1-yl]-N-(3,4,5-trifluorophenyl)-6,7-dihydro-4H-pyrazolo[1,5-a]pyrazine-5-carboxamide] is 5.3-fold lower in EC50: 80 nM for the first, 15 nM for the second.

First: C[C@H]1Cn2ncc(N3CC(c4ccccc4)CC3=O)c2CN1C(=O)Nc1cc(F)c(F)c(F)c1 (stereo partly drawn) [Example 309, (6S)-6-methyl-3-(2-oxo-4-phenyl-pyrrolidin-1-yl)-N-(3,4,5-trifluorophenyl)-6,7-dihydro-4H-pyrazolo[1,5-a]pyrazine-5-carboxamide]
Second: C[C@H]1Cn2ncc(N3CC(c4cccnc4)CC3=O)c2CN1C(=O)Nc1cc(F)c(F)c(F)c1 (stereo partly drawn) [Example 351, (6S)-6-methyl-3-[2-oxo-4-(3-pyridyl)pyrrolidin-1-yl]-N-(3,4,5-trifluorophenyl)-6,7-dihydro-4H-pyrazolo[1,5-a]pyrazine-5-carboxamide]
The EC50 of the first is 2.4-fold lower: 5 nM for the first, 12 nM for the second. The first is the more potent here.

`C[C@H]1Cn2ncc(N3CC(N(C)C(=O)c4ncco4)CC3=O)c2CN1C(=O)Nc1cc(F)c(F)c(F)c1` (stereo partly drawn) [Example 318, N-methyl-N-[1-[(6S)-6-methyl-5-[(3,4,5-trifluorophenyl)carbamoyl]-6,7-dihydro-4H-pyrazolo[1,5-a]pyrazin-3-yl]-5-oxo-pyrrolidin-3-yl]oxazole-2-carboxamide] and `C[C@H]1Cn2ncc(N3CC4(CC3=O)CN(C(=O)c3ncco3)C4)c2CN1C(=O)Nc1cc(F)c(F)c(F)c1` [Example 336, (6S)-6-methyl-3-[2-(oxazole-2-carbonyl)-7-oxo-2,6-diazaspiro[3.4]octan-6-yl]-N-(3,4,5-trifluorophenyl)-6,7-dihydro-4H-pyrazolo[1,5-a]pyrazine-5-carboxamide] are within 1.5-fold of each other in EC50: 45 nM for the first, 66 nM for the second.

First: CC1CN(c2cnn3c2CN(C(=O)Nc2ccc(F)c(Cl)c2)[C@@H](C)C3)C(=O)O1 (stereo partly drawn) [Example 321, (6S)—N-(3-chloro-4-fluoro-phenyl)-6-methyl-3-(5-methyl-2-oxo-oxazolidin-3-yl)-6,7-dihydro-4H-pyrazolo[1,5-a]pyrazine-5-carboxamide]
Second: C[C@H]1Cn2ncc(N3CC(c4ccncc4)OC3=O)c2CN1C(=O)Nc1cc(F)c(F)c(F)c1 (stereo partly drawn) [Example 346, (6S)-6-methyl-3-[2-oxo-5-(4-pyridyl)oxazolidin-3-yl]-N-(3,4,5-trifluorophenyl)-6,7-dihydro-4H-pyrazolo[1,5-a]pyrazine-5-carboxamide]
The EC50 of the first is 3.9-fold higher: 47 nM for the first, 12 nM for the second.

First: C[C@H]1Cn2ncc(N3CC(c4ccccc4)NC3=O)c2CN1C(=O)Nc1cc(F)c(F)c(F)c1 (stereo partly drawn) [Example 329, (6S)-6-methyl-3-(2-oxo-4-phenyl-imidazolidin-1-yl)-N-(3,4,5-trifluorophenyl)-6,7-dihydro-4H-pyrazolo[1,5-a]pyrazine-5-carboxamide]
Second: C[C@H]1Cn2ncc(N3CC(c4ccccc4)OC3=O)c2CN1C(=O)Nc1cc(F)c(F)c(F)c1 (stereo partly drawn) [Example 344, (6S)-6-methyl-3-(2-oxo-5-phenyl-oxazolidin-3-yl)-N-(3,4,5-trifluorophenyl)-6,7-dihydro-4H-pyrazolo[1,5-a]pyrazine-5-carboxamide]
The EC50 of the first is 1.8-fold lower: 4 nM for the first, 7 nM for the second.

`C[C@H]1Cn2ncc(N3CC4(CC4)OC3=O)c2CN1C(=O)Nc1cc(F)c(F)c(F)c1` [Example 331, (6S)-6-methyl-3-(5-oxo-4-oxa-6-azaspiro[2.4]heptan-6-yl)-N-(3,4,5-trifluorophenyl)-6,7-dihydro-4H-pyrazolo[1,5-a]pyrazine-5-carboxamide] and `C[C@H]1Cn2ncc(N3CC4(CCC4)OC3=O)c2CN1C(=O)Nc1cc(F)c(F)c(F)c1` [Example 332, (6S)-6-methyl-3-(6-oxo-5-oxa-7-azaspiro[3.4]octan-7-yl)-N-(3,4,5-trifluorophenyl)-6,7-dihydro-4H-pyrazolo[1,5-a]pyrazine-5-carboxamide] are within 1.5-fold of each other in EC50: 12 nM for the first, 11 nM for the second.

Going from `COC(=O)N1CC2(CC(=O)N(c3cnn4c3CN(C(=O)Nc3cc(F)c(F)c(F)c3)[C@@H](C)C4)C2)C1` [Example 333, methyl 6-[(6S)-6-methyl-5-[(3,4,5-trifluorophenyl)carbamoyl]-6,7-dihydro-4H-pyrazolo[1,5-a]pyrazin-3-yl]-7-oxo-2,6-diazaspiro[3.4]octane-2-carboxylate] to `CCOC(=O)N1CC2(CC(=O)N(c3cnn4c3CN(C(=O)Nc3cc(F)c(F)c(F)c3)[C@@H](C)C4)C2)C1` [Example 334, ethyl 6-[(6S)-6-methyl-5-[(3,4,5-trifluorophenyl)carbamoyl]-6,7-dihydro-4H-pyrazolo[1,5-a]pyrazin-3-yl]-7-oxo-2,6-diazaspiro[3.4]octane-2-carboxylate], the EC50 falls from 46 nM to 22 nM (2.1-fold). The second is the more potent here.

Compared with `C[C@H]1Cn2ncc(N3CC4(CC3=O)CN(c3ncccn3)C4)c2CN1C(=O)Nc1cc(F)c(F)c(F)c1` [Example 337, (6S)-6-methyl-3-(7-oxo-2-pyrimidin-2-yl-2,6-diazaspiro[3.4]octan-6-yl)-N-(3,4,5-trifluorophenyl)-6,7-dihydro-4H-pyrazolo[1,5-a]pyrazine-5-carboxamide], `C[C@H]1Cn2ncc(N3CC(c4ccccn4)CC3=O)c2CN1C(=O)Nc1cc(F)c(F)c(F)c1` (stereo partly drawn) [Example 353, (6S)-6-methyl-3-[2-oxo-4-(2-pyridyl)pyrrolidin-1-yl]-N-(3,4,5-trifluorophenyl)-6,7-dihydro-4H-pyrazolo[1,5-a]pyrazine-5-carboxamide] is 3-fold lower in EC50: 15 nM for the first, 5 nM for the second. The second is the more potent here.

`C[C@H]1Cn2ncc(N3C(=O)Cc4ccccc43)c2CN1C(=O)Nc1cc(F)c(F)c(F)c1` [Example 338, (6S)-6-methyl-3-(2-oxoindolin-1-yl)-N-(3,4,5-trifluorophenyl)-6,7-dihydro-4H-pyrazolo[1,5-a]pyrazine-5-carboxamide] and `C[C@H]1Cn2ncc(N3CC(c4ccccn4)OC3=O)c2CN1C(=O)Nc1cc(F)c(F)c(F)c1` (stereo partly drawn) [Example 345, (6S)-6-methyl-3-[2-oxo-5-(2-pyridyl)oxazolidin-3-yl]-N-(3,4,5-trifluorophenyl)-6,7-dihydro-4H-pyrazolo[1,5-a]pyrazine-5-carboxamide] are within 1.5-fold of each other in EC50: 14 nM for the first, 17 nM for the second.

`C[C@H]1Cn2ncc(-c3ncc(F)cn3)c2CN1C(=O)Nc1cc(F)c(F)c(F)c1` [Example 341, (6S)-3-(5-fluoropyrimidin-2-yl)-6-methyl-N-(3,4,5-trifluorophenyl)-6,7-dihydro-4H-pyrazolo[1,5-a]pyrazine-5-carboxamide] and `C[C@H]1Cn2ncc(-n3cc(CO)cn3)c2CN1C(=O)Nc1cc(F)c(F)c(F)c1` [Example 342, (6S)-3-[4-(hydroxymethyl)pyrazol-1-yl]-6-methyl-N-(3,4,5-trifluorophenyl)-6,7-dihydro-4H-pyrazolo[1,5-a]pyrazine-5-carboxamide] are within 1.5-fold of each other in EC50: 40 nM for the first, 41 nM for the second.

Going from `C[C@H]1Cn2ncc(N3CC(c4cocn4)OC3=O)c2CN1C(=O)Nc1cc(F)c(F)c(F)c1` (stereo partly drawn) [Example 348, (6S)-6-methyl-3-(5-oxazol-4-yl-2-oxo-oxazolidin-3-yl)-N-(3,4,5-trifluorophenyl)-6,7-dihydro-4H-pyrazolo[1,5-a]pyrazine-5-carboxamide] to `C[C@H]1Cn2ncc(N3CC(c4cocn4)CC3=O)c2CN1C(=O)Nc1cc(F)c(F)c(F)c1` (stereo partly drawn) [Example 352, (6S)-6-methyl-3-(4-oxazol-4-yl-2-oxo-pyrrolidin-1-yl)-N-(3,4,5-trifluorophenyl)-6,7-dihydro-4H-pyrazolo[1,5-a]pyrazine-5-carboxamide], the EC50 falls from 94 nM to 14 nM (6.7-fold).

With `Cc1nc(C2CC(=O)N(c3cnn4c3CN(C(=O)Nc3cc(F)c(F)c(F)c3)[C@@H](C)C4)C2)co1` (stereo partly drawn) [Example 350, (6S)-6-methyl-3-[4-(2-methyloxazol-4-yl)-2-oxo-pyrrolidin-1-yl]-N-(3,4,5-trifluorophenyl)-6,7-dihydro-4H-pyrazolo[1,5-a]pyrazine-5-carboxamide] the EC50 was 15 nM.

From US11168086B2, “Methods of synthesizing pyrazine compounds” (Hoffmann-La Roche Inc., priority 2015, dated 2021)
